Results: article PMC3750913 (BMC Microbiology, 2013)
Like-named read-outs stand apart in the source and are kept apart here.

How the values were obtained:
[1] = test system: HCMV; test: Dose-response antiviral assay (plaque assay); format: cell-based, human cytomegalovirus; settings: for EC50: HCMV in HEL cells, co-treatment with viral inoculum, read-out: Antiviral effect EC50
[2] = test system: HCV; format: cell-based, hepatitis C virus; settings: Huh-7.5 cells
[3] = test system: DENV-2; test: Dose-response antiviral assay (immunohistochemical staining plaque assay); format: cell-based, dengue virus type 2; settings: DENV-2, Vero cells
[4] = test system: VSV; format: cell-based, vesicular stomatitis virus; settings: A549 cells
[5] = test system: HCMV; test: Viral inactivation assay; format: cell-based, human cytomegalovirus; settings: Human betaherpesvirus 5, read-out: inhibition of infection after pre-incubation of free virus with compound
[6] = test system: HCV; test: Viral inactivation assay; format: cell-based; settings: Hepatitis C virus
[7] = test system: DENV-2; test: Viral inactivation assay; format: cell-based, dengue virus type 2; settings: Dengue virus
[8] = test system: MV; test: Viral inactivation assay; format: cell-based, measles virus
[9] = test system: RSV; test: Viral inactivation assay; format: cell-based, respiratory syncytial virus
[10] = test system: DENV-2; test: Viral attachment assay, method 1 (host cell infection); format: cell-based, dengue virus type 2; settings: DENV-2, method 1, 4°C; Figure 4
[11] = test system: MV; test: as above; format: cell-based, measles virus
[12] = test system: RSV; test: as above; format: cell-based, respiratory syncytial virus
[13] = test system: HCMV; test: Viral attachment assay, method 2 (virus-specific cellular ELISA); format: cell-based, human cytomegalovirus; settings: HCMV MOI 5, ELISA, 4°C; highest inhibitory concentration of the compounds
[14] = test system: HCV; test: as above; format: cell-based, hepatitis C virus; settings: HCV MOI 0.1, ELISA, 4°C; highest inhibitory concentration of the compounds
[15] = test system: DENV-2; test: as above; format: cell-based, dengue virus type 2; settings: DENV-2 MOI 5, ELISA, 4°C; highest inhibitory concentration of the compounds
[16] = test system: MV; test: as above; format: cell-based, measles virus; settings: MV MOI 1, ELISA, 4°C; highest inhibitory concentration of the compounds
[17] = test system: RSV; test: as above; format: cell-based, respiratory syncytial virus; settings: RSV MOI 5, ELISA, 4°C; highest inhibitory concentration of the compounds
[18] = test system: HCMV; test: Viral penetration assay; format: cell-based, human cytomegalovirus
[19] = test system: HCV; test: Viral penetration assay; format: cell-based, hepatitis C virus; settings: Hepatitis C virus, Huh7.5, read-out: Window of antiviral effects: Penetration, inhibitory effect relative to DMSO control
[20] = test system: MV; test: Viral penetration assay; format: cell-based, measles virus; settings: Measles morbillivirus, read-out: Window of antiviral effects: Penetration, inhibitory effect relative to DMSO control
[21] = test system: RSV; test: Viral penetration assay; format: cell-based, respiratory syncytial virus; settings: human respiratory syncytial virus, HEp-2, read-out: Window of antiviral effects: Penetration, inhibitory effect relative to DMSO control
[22] = test system: HCMV; test: Analysis of drug effects post viral entry; format: cell-based, human cytomegalovirus; settings: HCMV; Figure 6
[23] = test system: HCV; test: Analysis of drug effects post viral entry; format: cell-based, hepatitis C virus
[24] = test system: DENV-2; test: Analysis of drug effects post viral entry; format: cell-based, dengue virus type 2; settings: DENV-2; Figure 6
[25] = test system: MV; test: Analysis of drug effects post viral entry; format: cell-based, measles virus
[26] = test system: RSV; test: Analysis of drug effects post viral entry; format: cell-based, respiratory syncytial virus; settings: RSV; Figure 6
[27] = test system: HCMV; test: Viral cell-to-cell spread assay; format: cell-based, human cytomegalovirus
[28] = test system: DENV-2; test: Viral cell-to-cell spread assay; format: cell-based, dengue virus type 2
[29] = test system: RSV; test: Viral cell-to-cell spread assay; format: cell-based, respiratory syncytial virus
[30] = in vivo; cited from earlier work

Compound: O=C(O)C[C@@H]1C(=O)O[C@H]2[C@@H]3OC(=O)c4cc(O)c(O)c(O)c4-c4c(cc(O)c(O)c4O)C(=O)OC[C@H]2O[C@@H](OC(=O)c2cc(O)c(O)c(O)c2)[C@@H]3OC(=O)c2cc(O)c(O)c3c2[C@H]1[C@H](O)C(=O)O3 [CHLA, chebulagic acid]
- EC50 [1]: 25.5 ± 1.51 µM
- SI (selectivity index, CC50/EC50) ([1]; HCMV, HEL cells): 12.01
- EC50 ([1]; Human betaherpesvirus 5, HEL): < 35 µM
- SI (selectivity index, CC50/EC50) [2]: 19.54
- SI (selectivity index, CC50/EC50) [3]: 12.18
- SI (selectivity index, CC50/EC50) [4]: 5.17
- inhibition at 60 µM [5]: ~100%
- inhibition at 50 µM ([6]; Huh7.5, read-out: Window of antiviral effects: Free particle, inhibitory effect relative to DMSO control): > 75%
- inhibition at 50 µM ([6]; read-out: inhibition of infection after pre-incubation of free virus with compound): ~100%
- inhibition at 25 µM ([7]; DENV2, Vero, read-out: Window of antiviral effects: Free particle, inhibitory effect relative to DMSO control): > 75%
- inhibition at 25 µM ([7]; DENV2, read-out: inhibition of infection after pre-incubation of free virus with compound): ~100%
- block of infection after pre-incubation of free virus with compound ([8]; MV, CHLA 90 μM, PUG 50 μM, Figure 3): 60 – 80%
- inhibition at 90 µM ([8]; Measles morbillivirus, read-out: Window of antiviral effects: Free particle, inhibitory effect relative to DMSO control): 50 to 75%
- block of infection after pre-incubation of free virus with compound ([9]; RSV, CHLA 1 μM, PUG 2 μM, Figure 3): 60 – 80%
- inhibition at 1 µM ([9]; human respiratory syncytial virus, HEp-2, read-out: Window of antiviral effects: Free particle, inhibitory effect relative to DMSO control): > 75%
- inhibition of virus attachment [10]: 90 – 100%
- inhibition of entry (virus attachment) ([11]; MV, method 1, 4°C, Figure 4, PUG more effective than CHLA): 50 – 80%
- inhibition at 90 µM ([11]; Measles morbillivirus, read-out: Window of antiviral effects: Attachment Method 1, inhibitory effect relative to DMSO control): 50 to 75%
- inhibition of virus attachment ([12]; RSV, method 1, 4°C, Figure 4): 90 – 100%
- inhibition at 1 µM ([12]; human respiratory syncytial virus, HEp-2, read-out: Window of antiviral effects: Attachment Method 1, inhibitory effect relative to DMSO control): > 75%
- Window of antiviral effects: Attachment Method 2, inhibitory effect relative to DMSO control [13]: +++ (+++ > 75%)
- Window of antiviral effects: Attachment Method 2, inhibitory effect relative to DMSO control [14]: +++ (+++ > 75%)
- Window of antiviral effects: Attachment Method 2, inhibitory effect relative to DMSO control [15]: +++ (+++ > 75%)
- Window of antiviral effects: Attachment Method 2, inhibitory effect relative to DMSO control [16]: ++ (++ 50–75%)
- Window of antiviral effects: Attachment Method 2, inhibitory effect relative to DMSO control [17]: +++ (+++ > 75%)
- protection of the host cell from infection during virus penetration ([18]; HCMV, shift 4°C to 37°C, Figure 4): 50 – 90%
- inhibition at 60 µM ([18]; Human betaherpesvirus 5, HEL, read-out: Window of antiviral effects: Penetration, inhibitory effect relative to DMSO control): 50 to 75%
- inhibition at 50 µM [19]: > 75%
- inhibition at 90 µM [20]: 50 to 75%
- inhibition at 1 µM [21]: 50 to 75%
- protection, treatment post-infection [22]: 80 – 100%
- protection, treatment post-infection ([23]; HCV, Figure 6): 80 – 100%
- inhibition at 50 µM ([23]; Hepatitis C virus, Huh7.5, read-out: Window of antiviral effects: Post-infection, inhibitory effect relative to DMSO control): > 75%
- protection, treatment post-infection [24]: < 25%
- protection, treatment post-infection ([25]; MV, Figure 6): 80 – 100%
- inhibition at 90 µM ([25]; Measles morbillivirus, read-out: Window of antiviral effects: Post-infection, inhibitory effect relative to DMSO control): > 75%
- protection, treatment post-infection [26]: < 25%
- effect on viral plaque size (cell-to-cell spread) ([27]; HCMV, Figure 7): near initial size
- inhibition at 60 µM ([27]; Human betaherpesvirus 5, HEL, read-out: Window of antiviral effects: Cell-to-cell spread, inhibitory effect relative to DMSO control): > 75%
- effect on viral plaque size (cell-to-cell spread) ([28]; DENV-2, Figure 7): unaffected and expanded further
- inhibition at 25 µM ([28]; Dengue virus, DENV2, Vero, read-out: Window of antiviral effects: Cell-to-cell spread, inhibitory effect relative to DMSO control): < 25%
- effect on viral plaque size (cell-to-cell spread) ([29]; RSV, Figure 7): unaffected and expanded further
- inhibition at 1 µM ([29]; human respiratory syncytial virus, HEp-2, read-out: Window of antiviral effects: Cell-to-cell spread, inhibitory effect relative to DMSO control): < 25%
- in vivo toxicity [30]: minimal toxicity
